Converted amounts (≈) assume the structure as drawn. Read-outs that look alike come from different tables or passages of the source.
Columns and labels:
[1] = system: A. baumannii ATCC BAA-1797; test: MIC on A. baumannii ATCC BAA-1797; type: cell-based
Method: A. baumannii: A. baumannii ATCC BAA-1797 was grown from a glycerol stock by placing a small volume of cells onto a MHA plate. The MHA plate was incubated overnight at 37° C. A single colony was used to inoculate MHB to obtain a bacterial broth suspension. The MHB broth suspension was grown at 37° C. on a rotary shaking incubator (100 rpm) for 12 hours. The bacterial cell concentration was adjusted to ˜5×10^5 CFU/mL in MHB or MHB+10%, 20% or 40% FBS using OD at 595 nm. 500 μL aliquots of the adjusted bacterial cell suspension were placed into borosilicate glass tubes. The cell suspensions were treated with a compound of interest, and the treatments were serially diluted two-fold. The culture tubes were incubated for 18 hours at 37° C. Efficacy was either assessed visually or by adding 10% v/v MTT (5 mg/mL stock) after the 18 hour incubation period. The cell suspensions were subsequently incubated for 10 minutes to allow the MTT reagent to carry out the colorimetric reaction. The OD was read at 595 nm.

[2] = system: MRSA ATCC BAA-44; test: MIC on MRSA ATCC BAA-44; type: cell-based, S. aureus; details: Staphylococcus aureus
Method: MRSA BAA-44: MRSA ATCC BAA-44 was grown from a glycerol stock by placing a small volume of cells onto a Mueller-Hinton agar plate (MHA). The MHA plate was incubated overnight at 37° C. A single colony was used to inoculate Mueller-Hinton broth (MHB) to obtain a bacterial broth suspension. The MHB broth suspension was grown at 37° C. on a rotary shaking incubator (100 rpm) for 12 hours. The bacterial cell concentration was adjusted to ˜5×10^5 colony forming units per milliliter (CFU/mL) in MHB−/+10, 20, or 40% FBS using optical density (OD) at 595 nm. 500 μL aliquots of the adjusted bacterial cell suspension were placed into borosilicate glass tubes. The cell suspensions were treated with 100 μM compound of interest and serially diluted two-fold. The culture tubes were incubated for 18 hours at 37° C. Efficacy was either assessed visually or by adding 10% v/v MTT (5 mg/mL stock) after the 18 hour incubation period, where the cell suspensions were subsequently incubated for 10 minutes to allow the MTT reagent to carry out the colorimetric reaction.

[3] = Acinetobacter baumannii, ATCC 1797 / ATCC BAA-1797, 0% FBS, read-out: MIC (μM) in MDR A. baumannii ATCC 1797 0% FBS
[4] = 10% FBS, read-out: MIC (μM) in MRSA BAA-44 10% FBS
[5] = Acinetobacter baumannii, ATCC 1797 / ATCC BAA-1797, 10% FBS, read-out: MIC (μM) in MDR A. baumannii ATCC 1797 10% FBS
[6] = Acinetobacter baumannii, ATCC 1797 / ATCC BAA-1797, read-out: MIC (μM) in MDR A. baumannii ATCC 1797 40% FBS, 40% FBS
[7] = no serum (note in the cell), read-out: MIC (μM) in MRSA BAA-44
[8] = Acinetobacter baumannii, ATCCBAA1797, 18 h, read-out: MIC in the presence of 40% FBS, A. baumannii ATCC BAA-1797, 40% FBS
[9] = Acinetobacter baumannii, ATCCBAA1797, A. baumannii ATCC BAA-1797, absence of serum, read-out: MIC in the absence of serum
[10] = in FBS (note in the cell, percentage not given), read-out: MIC (μM) in MRSA BAA-44

Row | SMILES | MIC [1, 3] [µM] | MIC [2, 4] [µM] | MIC [1, 5] [µM] | MIC [1, 6] [µM] | also measured
1 | Brc1ccc(/N=N/c2c[nH]c3cccc(Nn4nnc5ccccc54)c23)cc1 [Compound 1, (E)-N-(3-((4-bromophenyl)diazenyl)-1H-indol-4-yl)-1H-benzo[d][1,2,3]triazol-1-amine] | 50 (≈ 21.6 µg/mL) | – | – | – | –
2 | Cn1cc(/N=N/c2ccc(Br)cc2)c2c([N+](C)(C)C)cccc21 [Compound 2, (E)-3-((4-bromophenyl)diazenyl)-N,N,N,1-tetramethyl-1H-indol-4-aminium iodide] | > 100 | > 100 | – | – | –
3 | O=[N+]([O-])c1ccc2[nH]cc(/N=N/c3ccc(Br)cc3)c2c1 [Compound 3, (E)-3-((4-bromophenyl)diazenyl)-5-nitro-1H-indole] | > 100 | – | > 100 | – | –
4 | NC(=O)CC(N)C(=O)Nc1cccc2[nH]cc(/N=N/c3ccc(Br)cc3)c12 (centres unmarked) [Compound 5, (E)-2-amino-N^1-(3-((4-bromophenyl)diazenyl)-1H-indol-4-yl)succinamide] | > 100 | – | > 100 | – | –
5 | N=C(N)NCCC(N)C(=O)Nc1cccc2[nH]cc(/N=N/c3ccc(Br)cc3)c12 (centres unmarked) [Compound 6, (E)-2-amino-N-(3-((4-bromophenyl)diazenyl)-1H-indol-4-yl)-4-guanidinobutanamide] | 25 (≈ 11.4 µg/mL) | 25 (≈ 11.4 µg/mL) | > 100 | 100 (≈ 45.7 µg/mL) | –
6 | Clc1ccc(N/N=C/c2c[nH]c3ccccc23)cc1 [Compound 7, (E)-3-((2-(4-chlorophenyl)hydrazineylidene)methyl)-1H-indole] | – | – | – | – | MIC ([1]; Acinetobacter baumannii, ATCC 1797 / ATCC BAA-1797, read-out: MIC (μM) in MDR A. baumannii ATCC 1797 0% FBS): 5 µM (≈ 1.35 µg/mL); MIC ([1]; Acinetobacter baumannii, ATCC 1797 / ATCC BAA-1797, read-out: MIC (μM) in MDR A. baumannii ATCC 1797 10% FBS): 25 µM (≈ 6.74 µg/mL); MIC ([1]; Acinetobacter baumannii, ATCC 1797 / ATCC BAA-1797, read-out: MIC (μM) in MDR A. baumannii ATCC 1797 40% FBS): 50 µM (≈ 13.5 µg/mL); MIC ([2]; read-out: MIC (μM) in MRSA BAA-44 10% FBS): 100 µM (≈ 27 µg/mL)
7 | C(=N\Nc1ccccc1)/c1c[nH]c2ccccc12 [Compound 8, (E)-3-((2-phenylhydrazineylidene)methyl)-1H-indole] | 40 (≈ 9.41 µg/mL) | > 100 | > 100 | 50 (≈ 11.8 µg/mL) | –
8 | O=[N+]([O-])c1ccc(N/N=C/c2c[nH]c3ccccc23)cc1 [Compound 9, (E)-3-((2-(4-nitrophenyl)hydrazineylidene)methyl)-1H-indole] | > 100 | – | – | – | –
9 | O=C(O)c1ccc(N/N=C/c2c[nH]c3ccccc23)cc1 [Compound 10, (E)-4-(2-((1H-indol-3-yl)methylene)hydrazineyl) benzoic acid] | > 100 | – | – | – | MIC [2, 7]: 100 µM (≈ 27.9 µg/mL)
10 | N#CCC(=O)N/N=C/c1c[nH]c2ccccc12 [Compound 11, (E)-N′-((1H-indol-3-yl)methylene)-2-cyanoacetohydrazide] | > 100 | > 100 | > 100 | > 100 | –
11 | Clc1ccccc1N/N=C/c1c[nH]c2ccccc12 [Compound 12, (E)-3-((2-(2-chlorophenyl)hydrazineylidene)methyl)-1H-indole] | 12.5 (≈ 3.37 µg/mL) | – | > 100 | > 100 | MIC [2, 7]: 25 µM (≈ 6.74 µg/mL)
12 | Oc1cccc2[nH]cc(/C=N/Nc3ccccc3)c12 [Compound 13, (E)-3-((2-phenylhydrazineylidene)methyl)-1H-indol-4-ol] | 5 (≈ 1.26 µg/mL) | 100 (≈ 25.1 µg/mL) | 100 (≈ 25.1 µg/mL) | > 100 | –
13 | N=C(N)NCCC[C@H](N)C(=O)Oc1cccc2[nH]cc(/C=N/Nc3ccc(Cl)cc3)c12 [Compound 16, (E)-3-((2-(4-chlorophenyl)hydrazineylidene)methyl)-1H-indol-4-yl argininate] | 3 (≈ 1.33 µg/mL) | > 100 | > 100 | > 100 | –
14 | CC(C)(C)OC(=O)N[C@@H](CCCNC(=N)N)C(=O)Oc1cccc2[nH]cc(/C=N/Nc3ccc(Cl)cc3)c12 [Compound 17, (E)-3-((2-(4-chlorophenyl)hydrazineylidene)methyl)-1H-indol-4-yl (tert-butoxycarbonyl) argininate] | > 100 | > 100 | > 100 | > 100 | –
15 | CC(C)(C)OC(=O)Nc1cccc2[nH]cc(/C=N/Nc3ccc(Cl)cc3)c12 [Compound 18] | 3 (≈ 1.15 µg/mL) | – | – | > 100 | MIC [1, 8]: > 100 µM; MIC [1, 9]: 3 µM (≈ 1.15 µg/mL); MIC ([2]; MRSA ATCC BAA-44, serum not stated, read-out: MIC): 12.5 µM (≈ 4.81 µg/mL); MIC [2, 7]: 12.5 µM (≈ 4.81 µg/mL)
16 | C(=N\Nc1ncccn1)/c1c[nH]c2ccccc12 [Compound 19, (E)-3-((2-(pyrimidin-2-yl)hydrazineylidene)methyl)-1H-indole] | > 100 | > 100 | – | > 100 | –
17 | Oc1cccc2[nH]cc(/C=N/Nc3ccc(Br)cc3)c12 [Compound 20, (E)-3-((2-(4-bromophenyl)hydrazineylidene)methyl)-1H-indol-4-ol] | 25 (≈ 8.25 µg/mL) | – | – | > 100 | MIC [2, 10]: > 100 µM; MIC [2, 7]: 25 µM (≈ 8.25 µg/mL)
18 | Oc1cccc2[nH]cc(/C=N/Nc3ccc(F)cc3)c12 [Compound 21, (E)-3-((2-(4-fluorophenyl)hydrazineylidene)methyl)-1H-indol-4-ol] | 25 (≈ 6.73 µg/mL) | – | – | > 100 | MIC [2, 10]: > 100 µM; MIC [2, 7]: 25 µM (≈ 6.73 µg/mL)
19 | CCCCCC(=O)Oc1cccc2[nH]cc(/C=N/Nc3ccc(Br)cc3)c12 [Compound 22, (E)-3-((2-(4-bromophenyl)hydrazineylidene)methyl)-1H-indol-4-yl hexanoate] | 25 (≈ 10.7 µg/mL) | – | – | > 100 | MIC [2, 10]: > 100 µM; MIC [2, 7]: 25 µM (≈ 10.7 µg/mL)
20 | Brc1ccc(N/N=C/c2c[nH]c3ccc(Br)cc23)cc1 [Compound 23, (E)-1-((5-bromo-1H-indol-3-yl)methylene)-2-(4-bromophenyl)hydrazin-1-ium chloride] | 12.5 | – | – | – | MIC ([1]; Acinetobacter baumannii, ATCC 1797 / ATCC BAA-1797, in human serum (note in the cell of the 40% FBS column), read-out: MIC (μM) in MDR A. baumannii ATCC 1797): < 100 µM
21 | CC(=O)n1cc(/C=N/Nc2ccc(Cl)cc2)c2ccccc21 [Compound 24, (E)-1-(3-((2-(4-chlorophenyl)hydrazineylidene)methyl)-1H-indol-1-yl)ethan-1-one] | < 100 | – | – | > 100 | –
22 | N#Cc1ccc(N/N=C/c2c[nH]c3cccc(OCc4ccccc4)c23)cc1 [Compound 28] | 25 (≈ 9.16 µg/mL) | – | – | 100 (≈ 36.6 µg/mL) | –
23 | O=S(=O)(N/N=C/c1c[nH]c2cccc(OCc3ccccc3)c12)c1ccccc1 [Compound 29, (E)-N′-((4-(benzloxy)-1H-indol-3-yl)methylene)benzenesulfonohydrazide] | > 100 | – | – | > 100 | –
24 | COc1ccc(N/N=C/c2c[nH]c3cccc(OCc4ccccc4)c23)cc1 [Compound 30, (E)-4-(benzyloxy)-3-((2-(4-methoxyphenyl) hydrazineylidene)methyl)-1H-indole] | > 100 | > 100 | > 100 | > 100 | MIC [1, 8]: 100 µM; MIC [1, 9]: 20 µM (≈ 7.43 µg/mL)
25 | Fc1ccc(N/N=C/c2c[nH]c3cccc(OCc4ccccc4)c23)cc1 [Compound 31, (E)-4-(benzyloxy)-3-((2-(4-fluorophenyl)hydrazineylidene)methyl)-1H-indole] | – | ~100 (≈ 35.9 µg/mL) | – | – | MIC ([1]; 0% FBS, read-out: MIC (μM) in MDR A. baumannii ATCC 1797 0% FBS): 12.5 µM (≈ 4.49 µg/mL)
26 | Clc1ccc(N/N=C/c2c[nH]c3cccc(OCc4ccccc4)c23)c(Cl)c1 [Compound 32, (E)-4-(benzyloxy)-3-((2-(2,4-dichlorophenyl)hydrazineylidene)methyl)-1H-indole] | > 100 | – | – | – | –
27 | Nc1cccc2c(S(=O)(=O)N/N=C/c3c[nH]c4cccc(OCc5ccccc5)c34)cccc12 [Compound 33, (E)-5-amino-N′-((4-(benzyloxy)-1H-indol-3-yl)methylene)naphthalene-1-sulfonohydrazide] | > 100 | – | – | > 100 | MIC [2, 7]: > 100 µM
